The source made the active and inactive calls. The calls are words filed in the database; no cut-off is given here.
Tests used:
[1] = test system: Escherichia coli; assay: Antibacterial activity against Escherichia coli K12 expressing modified luxABCDE genes assessed as reduction in bacterial growth by measuring reduction in bioluminescence at 40 uM incubated for 16 hrs by microplate reader analysis; assay type: functional, organism-based
[2] = test system: Escherichia coli; assay: Antibacterial activity against Escherichia coli K12 expressing modified luxABCDE genes assessed as reduction in bacterial growth by measuring reduction in optical density at 40 uM incubated for 16 hrs by microplate reader analysis; assay type: functional, organism-based
[3] = test system: Escherichia coli; assay: Substrate activity at Escherichia coli RNA polymerase assessed as extension of transcription elongation complex by measuring incorporation into RNA in place of UTP at 100 uM incubated for 1 min in presence of GTP by PAGE analysis
[4] = test system: Escherichia coli; assay: Antibacterial activity against Escherichia coli K12 expressing modified luxABCDE genes assessed as reduction in bacterial growth by measuring reduction in bioluminescence incubated for 16 hrs by microplate reader analysis; assay type: functional, organism-based; settings: DDE = dose-dependent effect
[5] = test system: Escherichia coli; assay: Antibacterial activity against Escherichia coli K12 expressing modified luxABCDE genes assessed as reduction in bacterial growth by measuring reduction in optical density incubated for 16 hrs by microplate reader analysis; assay type: functional, organism-based; settings: DDE = dose-dependent effect
[6] = test system: Saccharomyces cerevisiae; assay: Substrate activity at Saccharomyces cerevisiae RNA polymerase 2 assessed as extension of transcription elongation complex by measuring incorporation into RNA in place of UTP at 100 uM incubated for 1 min in presence of GTP by PAGE analysis
[7] = species: Homo sapiens; assay: Substrate activity at human mitochondria RNA polymerase assessed as extension of transcription elongation complex by measuring incorporation into RNA in place of UTP at 100 uM incubated for 1 min in presence of GTP by PAGE analysis
[8] = test system: Escherichia coli; assay: Inhibition of Escherichia coli RNA polymerase-mediated processive transcription elongation at polythymidine sequence at 2 mM incubated for 5 mins by PAGE analysis
[9] = test system: Saccharomyces cerevisiae; assay: Inhibition of Saccharomyces cerevisiae RNA polymerase 2-mediated processive transcription elongation at polythymidine sequence at 2 mM incubated for 5 mins by PAGE analysis
[10] = test system: HEK-293T; assay: Cytotoxicity against HEK293T cells at 30 uM incubated for 24 hrs by LDH assay; assay type: toxicity, cell-based; settings: human
[11] = test system: Escherichia coli; assay: Antibacterial activity against Escherichia coli K12 expressing modified luxABCDE genes assessed as reduction in bacterial growth by measuring reduction in bioluminescence at 0.002 to 2.5 mM incubated for 16 hrs by microplate reader analysis; assay type: functional, organism-based; settings: dose 0.002-2.5 mM
[12] = test system: HEK-293T; assay: Cytotoxicity against HEK293T cells assessed as morphological changes at 30 uM; assay type: toxicity, cell-based; settings: human
[13] = test system: Escherichia coli; assay: Bactericidal activity against Escherichia coli K12 expressing modified luxABCDE genes assessed as reduction in luminescence at 0.625 mM incubated for 16 hrs by microplate reader analysis; assay type: functional, organism-based
[14] = test system: Escherichia coli; assay: Antibacterial activity against Escherichia coli K12 expressing modified luxABCDE genes assessed as reduction in bacterial growth by measuring reduction in optical density at 0.002 to 2.5 mM incubated for 16 hrs by microplate reader analysis; assay type: functional, organism-based; settings: dose 0.002-2.5 mM
[15] = test system: HEK-293T; assay: Cytotoxicity against HEK293T cells assessed as reduction in viable cells at 125 uM incubated for 24 hrs by CCK-8 assay; assay type: toxicity, cell-based; settings: human
[16] = test system: Escherichia coli; assay: Antibacterial activity against Escherichia coli K12 expressing modified luxABCDE genes assessed as reduction in bacterial growth by measuring reduction in optical density at 0.002 to 2.5 mM incubated for 16 hrs in presence of uridine at 0.002 to 12.5 mM by microplate reader analysis; assay type: functional, organism-based; settings: dose 0.002-2.5 mM
[17] = test system: Escherichia coli; assay: Antibacterial activity against Escherichia coli K12 expressing modified luxABCDE genes assessed as reduction in bacterial growth by measuring reduction in bioluminescence at low concentrations measured after 250 mins by microplate reader analysis; assay type: functional, organism-based
[18] = test system: HEK-293T; assay: Cytotoxicity against HEK293T cells at 125 uM incubated for 24 hrs by LDH assay; assay type: toxicity, cell-based; settings: human
[19] = test system: Escherichia coli; assay: Antibacterial activity against Escherichia coli K12 expressing modified luxABCDE genes assessed as reduction in bacterial growth by measuring reduction in bioluminescence at 0.002 to 2.5 mM incubated for 16 hrs in presence of uridine at 0.002 to 12.5 mM by microplate reader analysis; assay type: functional, organism-based; settings: dose 0.002-2.5 mM
[20] = test system: Escherichia coli; assay: Bactericidal activity against Escherichia coli K12 expressing modified luxABCDE genes assessed as reduction in luminescence at 2.5 mM incubated for 16 hrs by microplate reader analysis; assay type: functional, organism-based
[21] = test system: HEK-293T; assay: Cytotoxicity against HEK293T cells assessed as reduction in viable cells at 500 uM incubated for 24 hrs by CCK-8 assay; assay type: toxicity, cell-based; settings: human
[22] = test system: HEK-293T; assay: Cytotoxicity against HEK293T cells assessed as morphological changes at 125 uM; assay type: toxicity, cell-based; settings: human
[23] = species: Homo sapiens; assay: Substrate activity at human mitochondria RNA polymerase assessed as one nucleotide extension of transcription elongation complex by measuring incorporation of 4-ethylthioshowdomycin-5'-monophosphate into RNA at 100 uM incubated for 1 min by ATTO680 fluorophore based PAGE analysis
[24] = species: Homo sapiens; assay: Substrate activity at human mitochondria RNA polymerase assessed as two nucleotide extension of transcription elongation complex by measuring incorporation of 4-ethylthioshowdomycin-5'-monophosphate into RNA at 100 uM incubated for 1 min in presence of GTP by ATTO680 fluorophore based PAGE analysis
[25] = test system: Escherichia coli; assay: Substrate activity at Escherichia coli RNA polymerase assessed as one nucleotide extension of transcription elongation complex by measuring incorporation of 4-ethylthioshowdomycin-5'-monophosphate into RNA at 100 uM incubated for 1 min by ATTO680 fluorophore based PAGE analysis

## CN[C@@H]1[C@@H](O[C@H]2O[C@H](CO)[C@@H](N)[C@H](O)[C@H]2O)O[C@H]2C[C@@H](N)[C@@H](O[C@H]3[C@H](O)[C@@H](O)[C@H](N)C[C@@H]3N)O[C@@H]2[C@@H]1O
[1]
  Activity: Active
[2]
  Activity: Active

## C[C@H](SC1=C([C@@H]2O[C@H](COP(=O)(O)OP(=O)(O)OP(=O)(O)O)[C@@H](O)[C@H]2O)C(=O)NC1=O)C(=O)O
[3]
  Activity: Active

## N=C(N)NCC(=O)N(O)C(CCC(N)=O)C(=O)NC[C@H]1O[C@@H](c2c[nH]c(=O)[nH]c2=O)[C@H](O)[C@@H]1O (stereo partly drawn)
[4]
  Activity: Dde
[5]
  Activity: Dde

## C[Se]C1=C([C@@H]2O[C@H](COP(=O)(O)OP(=O)(O)OP(=O)(O)O)[C@@H](O)[C@H]2O)C(=O)NC1=O
[6]
  Activity: Active
[7]
  Activity: Active
[8]
  inhibition: Active
[9]
  inhibition: Active
[3]
  Activity: Active

## O=C1C=C([C@@H]2O[C@H](CO)[C@@H](O)[C@H]2O)C(=O)N1
[10]
  Activity: Toxic
[11]
  Activity: Active
[12]
  Activity: Toxic
[13]
  Activity: Active
[14]
  Activity: Active
[15]
  Activity: Toxic

## NC[C@H]1O[C@H](O[C@H]2[C@H](O)[C@@H](O[C@H]3O[C@H](CO)[C@@H](O)[C@H](N)[C@H]3O)[C@H](N)C[C@@H]2N)[C@H](O)[C@@H](O)[C@@H]1O
[1]
  Activity: Active
[2]
  Activity: Active

## CCSC1=C([C@@H]2O[C@H](CO)[C@@H](O)[C@H]2O)C(=O)NC1=O
[11]
  Activity: Active
[16]
  Activity: Active
[17]
  Activity: Active
[18]
  Activity: Toxic
[19]
  Activity: Active
[20]
  Activity: Active
[14]
  Activity: Active
[21]
  Activity: Toxic
[22]
  Activity: Toxic

## CSC1=C([C@@H]2O[C@H](COP(=O)(O)OP(=O)(O)OP(=O)(O)O)[C@@H](O)[C@H]2O)C(=O)NC1=O
[6]
  Activity: Active
[7]
  Activity: Active
[8]
  inhibition: Active
[9]
  inhibition: Active
[3]
  Activity: Active

## O=C1NC(=O)C([C@@H]2O[C@H](COP(=O)(O)OP(=O)(O)OP(=O)(O)O)[C@@H](O)[C@H]2O)=C1Br
[6]
  Activity: Active
[7]
  Activity: Active
[8]
  inhibition: Active
[9]
  inhibition: Active
[3]
  Activity: Active

## CCSC1=C([C@@H]2O[C@H](COP(=O)(O)OP(=O)(O)OP(=O)(O)O)[C@@H](O)[C@H]2O)C(=O)NC1=O
[23]
  Activity: Active
[24]
  Activity: Active
[8]
  inhibition: Active
[25]
  Activity: Active
[9]
  inhibition: Active

## C[C@@H](SC1=C([C@@H]2O[C@H](COP(=O)(O)OP(=O)(O)OP(=O)(O)O)[C@@H](O)[C@H]2O)C(=O)NC1=O)C(=O)O
[3]
  Activity: Active

Reference: ChEMBL document CHEMBL5137012, “The role of the maleimide ring system on the structure-activity relationship of showdomycin” (Eur J Med Chem, 2022)
